Measurements: patent US5840684A, “Glycopeptide antibiotic derivatives” (Eli Lilly and Company, priority 1995, dated 1998)
In brackets after ≈: the same amount, converted by molar mass. Several values for one entry are separate records, joined by “and”; a condition that tells them apart may be missing. Equal entries are not always repeated.

Assays:
Streptococcus pneumoniae = assay: mouse protection, experimentally-induced infection; type: in vivo; details: mice infected with Streptococcus pneumoniae, two doses
[1] = system: vancomycin-resistant enterococci; assay: broth micro-dilution, mean geometric MIC; type: cell-based, Enterococcus faecium and Enterococcus faecalis; details: enterococci, 24-hour incubation
Streptococcus pyogenes = assay: mouse protection, experimentally-induced infection; type: in vivo; details: mice infected with Streptococcus pyogenes, two doses
[2] = system: vancomycin-susceptible enterococci; assay: broth micro-dilution, mean geometric MIC; type: cell-based, Enterococcus faecium and Enterococcus faecalis; details: enterococci, 24-hour incubation
[3] = system: Entercoccus faecium 180-1; assay: broth micro-dilution MIC; type: cell-based
Experimental: (§1) The MIC's were determined using a standard broth micro-dilution assay.

[4] = system: Staphylococcus aureus SA1199A; assay: broth micro-dilution MIC; type: cell-based
Experimental: as §1

[5] = system: Staphylococcus aureus X778; assay: broth micro-dilution MIC; type: cell-based
Experimental: as §1

[6] = system: Staphylococcus aureus SA1199; assay: broth micro-dilution MIC; type: cell-based
Experimental: as §1

Entercoccus faecium 276 = assay: broth micro-dilution MIC; type: cell-based
Experimental: as §1

[7] = system: Staphylococcus aureus 447; assay: broth micro-dilution MIC; type: cell-based
Experimental: as §1

[8] = system: Staphylococcus aureus S13E; type: cell-based
Experimental: as §1

[9] = system: Streptococcus pneumoniae P1; assay: broth micro-dilution MIC; type: cell-based
Experimental: (§2) The formula I compounds have in vitro and in vivo activity against Gram-positive pathogenic bacteria. The MIC's were determined using a standard broth micro-dilution assay.

[10] = system: Staphylococcus haemolyticus 415; assay: broth micro-dilution MIC; type: cell-based
Experimental: as §2

[11] = system: Enterococcus gallinarum 245; assay: broth micro-dilution MIC; type: cell-based; details: Enterococcus gallinarum 245
Experimental: as §2

Entercoccus faecium 2041 = assay: broth micro-dilution MIC; type: cell-based; details: Entercoccus faecium 2041
Experimental: as §2

[12] = system: Staphylococcus epidermidis 270; assay: broth micro-dilution MIC; type: cell-based
Experimental: as §2

[13] = system: Staphylococcus aureus 446; assay: broth micro-dilution MIC; type: cell-based
Experimental: as §1

[14] = system: Staphylococcus aureus X400; assay: broth micro-dilution MIC; type: cell-based
Experimental: as §1

[15] = system: Streptococcus pyogenes C203; assay: broth micro-dilution MIC; type: cell-based
Experimental: as §1

[16] = system: Staphylococcus aureus SA1199B; type: cell-based
Experimental: as §1

Entercoccus faecium 180 = assay: broth micro-dilution MIC; type: cell-based; details: Entercoccus faecium 180
Experimental: as §2

[17] = system: Staphylococcus haemolyticus 105; assay: broth micro-dilution MIC; type: cell-based
Experimental: as §2

[18] = system: Staphylococcus aureus 491; assay: broth micro-dilution MIC; type: cell-based
Experimental: as §1

[19] = system: Staphylococcus aureus 489; assay: broth micro-dilution MIC; type: cell-based
Experimental: as §1

Escherichia coli EC14 = assay: broth micro-dilution MIC; type: cell-based
Experimental: as §2

[20] = system: Haemophilus influenzae RD; assay: broth micro-dilution MIC; type: cell-based; details: Haemophilus influenzae RD
Experimental: as §2

SMILES	ED50 (Streptococcus pneumoniae) [mg/kg/2]	mean geometric MIC, Vancomycin Resistant Strains [1] [µg/mL]	ED50 (Streptococcus pyogenes) [mg/kg/2]	mean geometric MIC, Vancomycin Sensitive Strains [2] [µg/mL]	MIC [3] [µg/mL]	MIC [4] [µg/mL]	MIC [5] [µg/mL]	MIC [6] [µg/mL]	MIC (Entercoccus faecium 276) [µg/mL]	MIC [8] [µg/mL]	MIC [9] [µg/mL]	MIC [10]	MIC [11] [µg/mL]	MIC (Entercoccus faecium 2041) [µg/mL]	MIC [12]	MIC [13] [µg/mL]	MIC [15] [µg/mL]	MIC [16] [µg/mL]	MIC (Entercoccus faecium 180) [µg/mL]	MIC [17] [µg/mL]	also measured
CNC(CC(C)C)C(=O)NC1C(=O)NC(CC(N)=O)C(=O)NC2C(=O)NC3C(=O)NC(C(=O)NC(C(=O)O)c4cc(O)cc(O)c4-c4cc3ccc4O)C(OC3CC(C)(N)C(O)C(C)O3)c3ccc(c(Cl)c3)Oc3cc2cc(c3OC2OC(CO)C(O)C(O)C2OC2CC(C)(NCc3ccc(C(c4ccccc4)c4ccccc4)cc3)C(O)C(C)O2)Oc2ccc(cc2Cl)C1O (stereo not shown) [Compound 46]	0.156	0.71	0.378	0.50																	
CNC(CC(C)C)C(=O)NC1C(=O)NC(CC(N)=O)C(=O)NC2C(=O)NC3C(=O)NC(C(=O)NC(C(=O)O)c4cc(O)cc(O)c4-c4cc3ccc4O)C(OC3CC(C)(N)C(O)C(C)O3)c3ccc(c(Cl)c3)Oc3cc2cc(c3OC2OC(CO)C(O)C(O)C2OC2CC(C)(NCc3ccc(-c4ccc([N+](=O)[O-])cc4)cc3)C(O)C(C)O2)Oc2ccc(cc2Cl)C1O (stereo not shown) [Compound 64]	< 0.031	0.71	0.044	0.077	≤ 0.06	≤ 0.06	2 (≈ 1.11 µM)	1 (≈ 0.554 µM)	0.5 (≈ 0.277 µM)	2 (≈ 1.11 µM)	≤ 0.06	2 µg/mL (≈ 1.11 µM)	2 (≈ 1.11 µM)	≤ 0.06	0.5 µg/mL (≈ 0.277 µM)						MIC [7]: 0.5 µg/mL (≈ 0.277 µM)
CN[C@H](CC(C)C)C(=O)N[C@H]1C(=O)N[C@@H](CC(N)=O)C(=O)N[C@H]2C(=O)N[C@H]3C(=O)N[C@H](C(=O)N[C@H](C(=O)O)c4cc(O)cc(O)c4-c4cc3ccc4O)[C@H](O[C@H]3C[C@](C)(N)[C@@H](O)[C@H](C)O3)c3ccc(c(Cl)c3)Oc3cc2cc(c3O[C@@H]2O[C@H](CO)[C@@H](O)[C@H](O)[C@H]2O[C@H]2C[C@](C)(NCc3ccc(OCc4ccc(Cl)cc4)cc3)[C@@H](O)[C@H](C)O2)Oc2ccc(cc2Cl)[C@H]1O [Compound 93]	0.012	0.42	0.074	0.042	≤ 0.06	≤ 0.06	1 (≈ 0.549 µM)	2 (≈ 1.1 µM)		1 (≈ 0.549 µM)	≤ 0.06	1 µg/mL (≈ 0.549 µM)	1 (≈ 0.549 µM)	≤ 0.06	1 µg/mL (≈ 0.549 µM)	2 (≈ 1.1 µM)	≤ 0.06	1 (≈ 0.549 µM)	≤ 0.06	1 (≈ 0.549 µM)	MIC [14]: ≤ 0.06 µg/mL
CNC(CC(C)C)C(=O)NC1C(=O)NC(CC(N)=O)C(=O)NC2C(=O)NC3C(=O)NC(C(=O)NC(C(=O)O)c4cc(O)cc(O)c4-c4cc3ccc4O)C(OC3CC(C)(N)C(O)C(C)O3)c3ccc(c(Cl)c3)Oc3cc2cc(c3OC2OC(CO)C(O)C(O)C2OC2CC(C)(NCc3ccc(CCc4ccccc4)cc3)C(O)C(C)O2)Oc2ccc(cc2Cl)C1O (stereo not shown) [Compound 100]	0.046	0.71	0.062	0.042	≤ 0.06						≤ 0.06	2 µg/mL and 4 µg/mL	2 (≈ 1.12 µM)	≤ 0.06	0.5 µg/mL and 0.25 µg/mL	1 (≈ 0.56 µM)	≤ 0.06	0.5 (≈ 0.28 µM)	0.25 (≈ 0.14 µM)	1 (≈ 0.56 µM)	
CC(C)CC(C(=O)NC1C(=O)NC(CC(N)=O)C(=O)NC2C(=O)NC3C(=O)NC(C(=O)NC(C(=O)O)c4cc(O)cc(O)c4-c4cc3ccc4O)C(OC3CC(C)(N)C(O)C(C)O3)c3ccc(c(Cl)c3)Oc3cc2cc(c3OC2OC(CO)C(O)C(O)C2OC2CC(C)(NCC3CC=CCC3)C(O)C(C)O2)Oc2ccc(cc2Cl)C1O)N(C)CC1CC=CCC1 (stereo not shown) [Compound 287]		45		1.1	0.125 (≈ 0.0702 µM)	≤ 0.06	0.5 (≈ 0.281 µM)	0.5 (≈ 0.281 µM)	0.25 (≈ 0.14 µM)	1 (≈ 0.562 µM)	≤ 0.06	16 µg/mL (≈ 8.98 µM)	0.5 (≈ 0.281 µM)	0.125 (≈ 0.0702 µM)	4 µg/mL (≈ 2.25 µM)	1 (≈ 0.562 µM)	≤ 0.06	0.25 (≈ 0.14 µM)	16 (≈ 8.98 µM)	8 (≈ 4.49 µM)	MIC [18]: 1 µg/mL (≈ 0.562 µM); MIC [19]: 0.5 µg/mL (≈ 0.281 µM); MIC [14]: 0.5 µg/mL (≈ 0.281 µM); MIC [7]: 4 µg/mL (≈ 2.25 µM); MIC (Escherichia coli EC14): > 64 µg/mL; MIC [20]: > 64 µg/mL
CNC(CC(C)C)C(=O)NC1C(=O)NC(CC(N)=O)C(=O)NC2C(=O)NC3C(=O)NC(C(=O)NC(C(=O)O)c4cc(O)cc(O)c4-c4cc3ccc4O)C(OC3CC(C)(NCc4ccc(OCCOC(C)(C)C)cc4)C(O)C(C)O3)c3ccc(c(Cl)c3)Oc3cc2cc(c3OC2OC(CO)C(O)C(O)C2OC2CC(C)(NCc3ccc(OCCOC(C)(C)C)cc3)C(O)C(C)O2)Oc2ccc(cc2Cl)C1O (stereo not shown) [Compound 288]		11		1.7	1 (≈ 0.499 µM)	1 (≈ 0.499 µM)	2 (≈ 0.997 µM)	2 (≈ 0.997 µM)	2 (≈ 0.997 µM)	2 (≈ 0.997 µM)	≤ 0.06	4 µg/mL (≈ 1.99 µM)	2 (≈ 0.997 µM)	1 (≈ 0.499 µM)	1 µg/mL (≈ 0.499 µM)	2 (≈ 0.997 µM)	≤ 0.06	1 (≈ 0.499 µM)	4 (≈ 1.99 µM)	2 (≈ 0.997 µM)	MIC [18]: 2 µg/mL (≈ 0.997 µM); MIC [19]: 2 µg/mL (≈ 0.997 µM); MIC [14]: 2 µg/mL (≈ 0.997 µM); MIC [7]: 2 µg/mL (≈ 0.997 µM); MIC (Escherichia coli EC14): > 64 µg/mL; MIC [20]: > 64 µg/mL
